Measurements: patent US5336757A, “Antibacterial peptide and methods of use” (Harbor Branch Oceanographic Institution, Inc., priority 1992, dated 1994)
In brackets after ≈: the same amount, converted by molar mass. Bridge positions count the residues as written; N and C are the ends. Square brackets hold non-standard residues; d marks the D form. Peptide text beside a SMILES is read from it. * marks the point of attachment. Phe(4-Br) = N[C@@H](Cc1ccc(Br)cc1)C(=O)O; Ile(3-Me) = CCC(C)(C)[C@H](N)C(=O)O; Cya = N[C@@H](CS(=O)(=O)O)C(=O)O; NMeQ = CN[C@@H](CCC(N)=O)C(=O)O; Tle = CC(C)(C)[C@H](N)C(=O)O; For = O=C*

Legend:
[1] = tested on: A549 human lung carcinoma cells; settings: 72 h
Protocol: P388 murine leukemia cells obtained from Dr. J. Mayo, National Cancer Institute, Bethesda, Md., and A549 cells were obtained from the American Type Culture Collection, Rockville, Md. The P388 cells were maintained in Roswell Park Memorial Institute medium 1640 (RPMI-1640) supplemented with 10% horse serum and cultured in plastic tissue culture flasks and kept in an incubator at 37° C. in humidified air containing 5% CO2. The A549 cells were similarly maintained in RPMI-1640 but supplemented with 10% fetal bovine serum. Antibiotic-free stock cultures of P388 and A549 cells were subcultured to 10^5 cells/ml by dilutions in fresh growth medium at 2 to 5 day intervals. […]
To quantitate the effects of polydiscamide A or its analogs on cell proliferation, 75 μl warm growth medium containing 5 mg/ml MTT was added to each well. […] To spectrophotometrically quantitate formation of reduced formazan, plates were centrifuged (900 g, 5 minutes), culture fluids were removed by aspiration, and 200 μl of acidified isopropanol (2 ml concentrated HCl/L isopropanol) added per well. The absorbance of the resulting solutions was measured at 570 nm with a plate reader (MR700 Microplate Reader, Dynatech Laboratories, Chantilly, Va.).

Bacillus subtilis = assay type: cell-based
Protocol: Bacillus subtilis: Standard spore stocks (ATCC strain 6633) were purchased from Difco (#0453-36-0). Two-fold dilutions of polydiscamide A were prepared in 50 μL volumes of a suitable solvent using 96-well microtiter plates. In a separate 96-well plate, 35 μL volumes of Mueller-Hinton broth were placed in each well. The compound (5 μL) was then transferred to the broth. An inoculum of B. subtilis in the appropriate medium was added to give a cell density of 1000 cells/mL and a total volume of 50 μL. Plates were incubated at 37° C. overnight.

[2] = tested on: P388 murine leukemia cells; settings: 48 h
Protocol: Polydiscamide A was tested for toxicity against P388 murine leukemia cells and A549 human lung carcinoma cells.
The P388 cells were maintained in Roswell Park Memorial Institute medium 1640 (RPMI-1640) supplemented with 10% horse serum and cultured in plastic tissue culture flasks and kept in an incubator at 37° C. in humidified air containing 5% CO2. The A549 cells were similarly maintained in RPMI-1640 but supplemented with 10% fetal bovine serum. Antibiotic-free stock cultures of P388 and A549 cells were subcultured to 10^5 cells/ml by dilutions in fresh growth medium at 2 to 5 day intervals. […]
To quantitate the effects of polydiscamide A or its analogs on cell proliferation, 75 μl warm growth medium containing 5 mg/ml MTT was added to each well. […] To spectrophotometrically quantitate formation of reduced formazan, plates were centrifuged (900 g, 5 minutes), culture fluids were removed by aspiration, and 200 μl of acidified isopropanol (2 ml concentrated HCl/L isopropanol) added per well. The absorbance of the resulting solutions was measured at 570 nm with a plate reader (MR700 Microplate Reader, Dynatech Laboratories, Chantilly, Va.). […]

CCC(C)(C)[C@H](NC(=O)[C@@H](NC(=O)[C@@H]1CCCN1C(=O)[C@H](Cc1ccc(Br)cc1)NC(=O)[C@H](C)NC=O)C(C)(C)C)C(=O)N[C@@H](Cc1c[nH]c2ccccc12)C(=O)N[C@@H](CCCNC(=N)N)C(=O)N[C@@H](CS(=O)(=O)O)C(=O)N[C@@H]1C(=O)N(C)[C@@H](CCC(N)=O)C(=O)N[C@@H](C(C)C)C(=O)N2CCC[C@H]2C(=O)N[C@@H](CC(N)=O)C(=O)O[C@@H]1C [polydiscamide A] (For-A[Phe(4-Br)]P[Tle][Ile(3-Me)]WR[Cya]T[NMeQ]VPN; ester 9-C)
IC50 against cultured human lung carcinoma cells (A549) [1]: 0.66 µg/mL (≈ 0.386 µM)
MIC against B. subtilis (Bacillus subtilis): 3.1 µg/mL (≈ 1.81 µM)
IC50 against mouse leukemia cells (P388) [2]: 0.96 µg/mL (≈ 0.561 µM)
